Measured values taken from patent US6444645B1, “Crosslink-stabilized indolicidin analogs” (The Regents of the University of California, priority 1998, dated 2002).
Read-outs that look alike come from different tables or passages of the source.

Legend:
[1] = tested on: α-chymotrypsin; details: α-chymotrypsin 1% by weight, 0.1 M Tris buffer pH 7.7, 37° C., RP-HPLC
[2] = tested on: C. albicans; details: 60 min, 10 mM PIPES pH 7.4
Procedure: (§1) Microbicidal activity was measured by first incubating the target organism with the peptide in 10 mM PIPES buffer (pH 7.4), then plating the suspension to quantitate surviving microorganisms.
(§2) Cultures were grown to mid log phase in an appropriate medium, harvested, washed, and resuspended to 1-2×10^7 colony forming units (CFU) per ml. To conserve peptide, the incubation volume usually was 0.05 ml, with the final cell concentration being 1-2×10^6 CFU/ml. Peptide stock solutions, usually made up in […], were diluted in the incubation buffer to a final concentration of 1 μg/ml to 30 μg/ml, and the incubation was initiated by addition of an appropriate volume of the bacterial or fungal stock suspension to the prewarmed (37° C.) peptide-buffer mixture. E. coli and S. aureus were incubated with peptide for 30 min; C. albicans was incubated for 60 min; and C. neoformans was incubated for 4 hr. Following incubation, 50 μl or 100 μl samples were removed and diluted serially, then plated on nutrient-containing agar plates.

[3] = tested on: S. aureus 207A; details: 30 min
Procedure: as §1, §2

[4] = tested on: C. neoformans 271A; details: 4 hr
Procedure: as §1, §2

[5] = tested on: E. coli ML35; details: 30 min
Procedure: as §1, §2

[6] = tested on: Escherichia coli ML35; details: 10, 30, 100 or 300 μg/ml in 10 mM PIPES pH 7.4; FIG. 2
Procedure: (§3) Nutrient-containing agar (or agarose) plates were seeded with E. coli ML35, C. neoformans 271A, S. aureus 207A or C. albicans 16820. […] Following an initial incubation interval of 1 to 4 hr, the well-containing layer was overlayed with enriched (2×normal) solid medium in order to support microbial growth outside the perimeter of inhibition. After overnight incubation at 30° C. to 37° C., the antimicrobial activity was quantitated by measuring the clear zones around each well (zone of inhibition).

[7] = tested on: Candida albicans 16820; details: 10, 30, 100 or 300 μg/ml in 10 mM PIPES pH 7.4; FIG. 5
Procedure: as §3

[8] = tested on: Cryptococcus neoformans 271A; details: 10, 30, 100 or 300 μg/ml in 10 mM PIPES pH 7.4; FIG. 3
Procedure: as §3

[9] = tested on: Staphylococcus aureus 207A; details: 10, 30, 100 or 300 μg/ml in 10 mM PIPES pH 7.4; FIG. 4
Procedure: as §3

[10] = 10 μg/ml peptide, 10 mM PIPES pH 7.4

Ile-Leu-Pro-Trp-Lys-Trp-Pro-Trp-Trp-Pro-Trp-Arg-Arg-CONH2 [Indol 1-13]
time within which all of the peptide was digested [1]: ≤ 6 h | reduction of survival (CFU) ([2]; 10 μg/ml peptide): about two orders of magnitude | reduction of survival (CFU) ([2]; 30 μg/ml peptide): greater than three orders of magnitude | reduction of survival (CFU) [3, 10]: greater than three orders of magnitude | additional killing versus 10 μg/ml ([3]; 30 μg/ml peptide): minimal additional killing | reduction of survival (CFU) [4, 10]: greater than three orders of magnitude | additional killing versus 10 μg/ml ([4]; 30 μg/ml peptide): minimal additional killing | reduction of survival (CFU) [5, 10]: greater than three orders of magnitude | additional killing versus 10 μg/ml ([5]; 30 μg/ml peptide): minimal additional killing | growth inhibition (zone of inhibition) [6]: inhibited the growth of each microorganism tested in a dose dependent manner | growth inhibition (zone of inhibition) [7]: inhibited the growth of each microorganism tested in a dose dependent manner | growth inhibition (zone of inhibition) [8]: inhibited the growth of each microorganism tested in a dose dependent manner | growth inhibition (zone of inhibition) [9]: inhibited the growth of each microorganism tested in a dose dependent manner
